Entries after “also recorded” stand apart in the source; their conditions may differ. Where two headings read alike, the source gives them in different places.
How the values were obtained:
platelets = assay: platelet aggregation in PRP induced by ADP; type: cell-based, human; conditions: Homo sapiens, Platelet, 11 μM ADP
Protocol: FIG. 7 depicts a graph showing the effect of S-nitrosocaptopril on platelet aggregation. Platelets in PRP were incubated with S-nitrosocaptopril over a range of concentrations for three minutes, after which ADP was added to a final concentration of 11 uM. The maximal rate of aggregation was measured and plotted as a percentage of that observed in the absence of S-nitrosocaptopril. Each point represents the mean ±SEM of five experiments each performed in duplicate.
Platelets. Volunteers who had not ingested acetylsalicylic acid for at least ten days provided venous blood within one hour of use. […] Platelet counts were determined using a Coulter counter (Model ZM; Coulter Electronics, Hialeah, Fla.) and adjusted with platelet-poor plasma (PPP) to 1.5×10^8 platelets/ml prior to use.
Platelet Aggregation. Platelet aggregation was monitored using a standard nephelometric technique (Born and Cross, J. Physiol (London) 168:178-195 (1963)) in which PRP was incubated at 37° with a final concentration of 11 μM ADP and stirred at 900 rpm in a Payton dual channel aggregometer (Payton Associates, Inc., Buffalo, N.Y.). Aggregation was quantitated by measuring either the maximal rate of change of light transmittance or the extent of change of light transmittance. […]

[1] = decay of the S-nitroso bond in plasma (PPP); type: in vitro ADME; conditions: room temperature
Protocol: (§1) The half-life of the S-nitroso bond of S-nitrosocaptopril in physiologic buffer and in plasma was determined by incubating purified S-nitrosocaptopril in aerated PSS or in PPP, the results of which are shown in FIG. 1.

[2] = tested on: cGMP (and cAMP) in platelets; assay: cGMP (and cAMP) levels in platelets; type: cell-based; conditions: 10^-5 M, one minute
Protocol: Since the postulated mechanism by which the nitrosothiol moiety of S-nitrosocaptopril directly relaxes vascular smooth muscle and attenuates the platelet aggregation response is believed to be through activation of soluble guanylate cyclase, cGMP (and cAMP) levels were measured in vessel ring segments and in platelets incubated with 10^-5 M S-nitrosocaptopril.

[3] = spontaneous hydrolysis (half-life of the S-nitroso bond) in physiologic buffer (PSS); type: physicochemical; conditions: 37° C.
Protocol: FIG. 1 depicts a graph showing the spontaneous hydrolysis of S-nitrosocaptopril in PBS. Each point represents the mean ±SEM of four experiments performed in duplicate.
as §1

bovine femoral artery = assay: relaxation of isolated bovine femoral artery rings contracted with norepinephrine; conditions: for IC50: Bos taurus
Protocol: FIG. 2 depicts a graph showing the effect of S-nitrosocaptopril on the contraction of bovine femoral arteries to norepinephrine.
(§2) Blood Vessel Preparation. Bovine coronary or femoral arteries were obtained from an abattoir immediately after sacrifice of two- to four-week-old calves. Immediately after removal, the vessel was placed in ice-cold physiologic salt solution (PSS) containing 118.3 mM NaCl, 4.7 mM KCl, 2.5 mM CaCl2, 1.2 mM MgSO4, 1.2 mM KH2 PO4, 25.0 mM NaHCO3, 11.1 mM glucose, and 0.026 mM calcium disodium (ethylenedinitrilo)-tetraacetate. The vessels were then cleaned of adventitial tissue and cut into rings of approximately 5 mm lengths. When called for by the protocol, endothelium was removed from a ring by gently rubbing the luminal surface with a watchmaker's forceps. Vascular rings with intact endothelium were then suspended in organ chambers containing 25 ml of PSS at 37° aerated with 95% O2 -5% CO2. The rings were connected to force transducers (Grass FT03C, Quincy, Mass.) and changes in isometric force recorded continuously (Grass Polygraph Model 79B) over a period of 90 minutes. The optimal length-tension relationship was determined for each ring by observing the response to 10^-6 M norepinephrine after increments in tension of 0.5 gm. The functional integrity of the endothelium was assessed by contracting the vessel with 10^-6 M norepinephrine and then observing the response to 3×10^-7 M acetylcholine chloride.
Vascular ring segments with intact endothelium were […] contracted with a concentration of norepinephrine inducing a half-maximal response. After a stable contraction had been achieved, the tissue was exposed to increasing concentrations of S-nitrosocaptopril in cumulative half-log increments. […] The apparent IC50 is approximately 1 μM.

bovine coronary artery = assay: relaxation of isolated bovine coronary artery rings contracted with potassium chloride
From the text: FIG. 5 depicts a graph showing the relaxation to sodium nitroprusside in the bovine coronary artery in the presence (o; n=7) or absence (; n:12) of a subthreshhold dose of S-nitrosocaptopril. The data are expressed as a percentage of the initial tension generated by potassium chloride (4×10^-2 M; coronary arteries) and are shown as mean ±SEM in each group.
as §2
Thus, to study vasodilating agents in this tissue the vessels were first contracted with potassium chloride (40 mM). Relaxations are expressed as a percent of the concentration to 40 mM potassium chloride.
Relaxations to S-nitrosocaptopril were inhibited by the antagonist of soluble guanylate cyclase, methylene blue (FIG. 4). Sodium nitroprusside induced dose-dependent relaxations of contractions to potassium chloride. The relaxation to sodium nitroprusside was inhibited by subthreshold doses of S-nitrosocaptopril (FIG. 5).

[4] = tested on: bovine femoral artery, contraction to angiotensin I; assay: contraction of the bovine femoral artery to angiotensin I
Protocol: The data are expressed as a percentage of the maximal response to norepinephrine (10^-6 M) and are shown as mean ±SEM in each group (n=7).
as §2

For `C[C@H](CSN=O)C(=O)N1CCC[C@H]1C(=O)O` [S-nitrosocaptopril], the IC50 (platelets) was ~80 µM, the “estimated half-life of the S-nitroso bond” value [1] was ~2.5 h and the “cAMP levels, platelets (in words)” value [2] was “did not change from basal levels”. The “cGMP level, platelets” value [2] was 5.44 pmoles/10^8 platelets, the fold induction at 10 µM ([2]; Platelet, 1 min, read-out: increase of cGMP levels, platelets) was 11.3 and the “estimated half-life of the S-nitroso bond (thiol-bound, mercurous-displaceable nitrite)” value [3] was “approximately 2.8 hours”. The IC50 (bovine femoral artery; compared with coronary artery, p<0.05, n=6, read-out: IC50 (relaxation, femoral artery)) was 5.6 µM, the IC50 (bovine femoral artery; norepinephrine-contracted, intact endothelium, FIG. 2, read-out: apparent IC50 (relaxation)) was ~1 µM and the “potency of vasodilation relative to S-nitroso-N-acetylpenicillamine (literature value in the bovine coronary artery)” value (bovine femoral artery; compared with Ignarro et al.) was “approximately one order of magnitude weaker”. For the same compound, the “relaxation response (in words)” value (bovine femoral artery; norepinephrine-contracted, FIG. 2) was “induced dose-dependant relaxation; also recorded: progressive relaxation was observed”, the IC50 (bovine coronary artery; Bos taurus, contracted with potassium chloride (40 mM)) was 1.9 µM and the Emax (bovine coronary artery; Bos taurus, contracted with potassium chloride (40 mM), read-out: maximal relaxation, coronary artery) was 97 ± 7%. The “maximum inhibitory effect / relaxation, coronary artery compared with femoral artery (in words)” value (bovine coronary artery; FIG. 3) was “significantly greater than those in the femoral artery (p<0.05); also recorded: significantly greater in the coronary artery than in the femoral artery”, the “effect on relaxation to sodium nitroprusside (in words)” value (bovine coronary artery; subthreshold doses of S-nitrosocaptopril, FIG. 5) was “inhibited” and the “inhibition of contractions to angiotensin I, S-nitrosocaptopril versus captopril (in words)” value [4] was “equally inhibited contractions to angiotensin I”. The “shift in the response to angiotensin I (rounded, discussion)” value [4] was 50 fold, the “log shift at the ED50 in the response to angiotensin I” value ([4]; 10^-6 M, n=6, p<0.001, FIG. 9) was 1.74±0.25 log and the “shift at the ED50 in the response to angiotensin I” value ([4]; 10^-6 M, n=6, p<0.001, FIG. 9) was 56 fold.

Reference: patent US5536723A, “S-nitroso derivatives of hydrazinoacetic acids, 1-[(acylthio and (mercapto)-1-oxoalkyl]-1,2,34-Tetrahydroquinoline-2-carboxylic acids and alanyl prolines and isoquinolines” (Brigham & Women's Hospital, priority 1994, dated 1996)
